Test results from article PMC5840146, “Structure-Activity Relationship Analysis of 3-Phenylcoumarin-Based Monoamine Oxidase B Inhibitors” (Frontiers in Chemistry, 2018).
Where two headings read alike, the source gives them in different places.

How the values were obtained:
MAO-B [1] = target: T1, MAO-B (Homo sapiens, UniProt P27338); test: MAO-B inhibition of prior 3-phenylcoumarins (literature data); assay type: biochemical; conditions: LiPE = pIC50 - QPlogPo/w, literature IC50
T1 construct: purchased Sigma-Aldrich
T1 sequence (P27338 1-520): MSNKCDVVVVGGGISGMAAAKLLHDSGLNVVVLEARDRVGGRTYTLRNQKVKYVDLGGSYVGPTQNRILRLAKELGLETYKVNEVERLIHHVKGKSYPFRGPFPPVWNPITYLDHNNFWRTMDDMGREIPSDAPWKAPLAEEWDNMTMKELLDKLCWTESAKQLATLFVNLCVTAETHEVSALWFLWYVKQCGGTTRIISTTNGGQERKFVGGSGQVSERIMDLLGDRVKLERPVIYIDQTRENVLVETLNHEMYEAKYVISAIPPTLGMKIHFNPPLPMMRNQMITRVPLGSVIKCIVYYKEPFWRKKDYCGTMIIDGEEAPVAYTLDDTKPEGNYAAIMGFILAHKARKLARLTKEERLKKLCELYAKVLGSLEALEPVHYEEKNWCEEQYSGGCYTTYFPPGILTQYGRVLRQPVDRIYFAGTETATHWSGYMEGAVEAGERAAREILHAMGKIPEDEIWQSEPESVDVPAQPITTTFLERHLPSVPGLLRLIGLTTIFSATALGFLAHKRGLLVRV

MAO-B [2] = target: T1, MAO-B; conditions: cited from earlier work; for pIC50: MAO-B; for IC50: read-out: MAO-B inhibition IC50
[3] = from literature IC50 ref Matos et al., 2010
[4] = prior 3-phenylcoumarins ref Matos et al., 2010
[5] = from literature IC50 ref Matos et al., 2011a
[6] = prior 3-phenylcoumarins ref Matos et al., 2011a
[7] = from literature IC50 ref Matos et al., 2011b
[8] = prior 3-phenylcoumarins ref Matos et al., 2011b
[9] = from literature IC50 ref Matos et al., 2009, 2011a
[10] = prior 3-phenylcoumarins ref Matos et al., 2009, 2011a
[11] = from literature IC50 ref Serra et al., 2012
[12] = prior 3-phenylcoumarins ref Serra et al., 2012

| SMILES | LiPE (MAO-B [1]) | pIC50 (MAO-B [2]; [5]) | IC50 (MAO-B [2]; [6]) [nM] | further results |
| --- | --- | --- | --- | --- |
| COc1cc(OC)c(Br)c(-c2cc3cc(C)ccc3oc2=O)c1 [CHEMBL1835233] | 0.20 | 4.27 | 54000 |  |
| COc1cc(Br)cc2cc(-c3ccccc3)c(=O)oc12 [CHEMBL1777814] | 3.35 |  |  | pIC50 (MAO-B [2]; [7]): 7.08; IC50 (MAO-B [2]; [8]): 83.5 nM |
| COc1ccc(-c2cc3cc(C)cc(Br)c3oc2=O)cc1 [CHEMBL1221980] | 1.42 |  |  | pIC50 (MAO-B [2]; [3]): 5.49; IC50 (MAO-B [2]; [4]): 3230 nM |
| COc1cc(OC)cc(-c2cc3cc(C)cc(Br)c3oc2=O)c1 [CHEMBL1221981] | 1.02 |  |  | pIC50 (MAO-B [2]; [3]): 5.15; IC50 (MAO-B [2]; [4]): 7120 nM |
| COc1ccc(-c2c(O)c3ccccc3oc2=O)cc1 [CHEMBL1917495] | 1.49 |  |  | pIC50 (MAO-B [2]; [11]): 4.16; IC50 (MAO-B [2]; [12]): 69600 nM |
| COc1ccc(-c2c(O)c3cc(C)ccc3oc2=O)cc1 [CHEMBL1934673] | 1.53 |  |  | pIC50 (MAO-B [2]; [11]): 4.49; IC50 (MAO-B [2]; [12]): 32000 nM |
| COc1ccc(-c2cc3cc(Br)cc(OC)c3oc2=O)cc1 [CHEMBL1777845] | 5.09 |  |  | pIC50 (MAO-B [2]; [7]): 8.87; IC50 (MAO-B [2]; [8]): 1.35 nM |
| COc1ccc(-c2c(O)c3cc(C)ccc3oc2=O)cc1Cl [CHEMBL1934676] | 0.88 |  |  | pIC50 (MAO-B [2]; [11]): 4.37; IC50 (MAO-B [2]; [12]): 42700 nM |
| Cc1ccc(-c2cc3cc(OC4CCCC4)ccc3oc2=O)cc1 [CHEMBL1835227] | 0.14 | 4.84 | 14500 |  |
| COc1ccc(-c2c(O)c3cc(Cl)ccc3oc2=O)cc1Cl [CHEMBL1934677] | 1.88 |  |  | pIC50 (MAO-B [2]; [11]): 5.55; IC50 (MAO-B [2]; [12]): 2790 nM |
| COc1cc(-c2cc3cc(C)ccc3oc2=O)cc(OC)c1OC [CHEMBL1783716] | 3.18 |  |  | pIC50 (MAO-B [2]; [9]): 6.79; IC50 (MAO-B [2]; [10]): 161 nM |
| O=c1oc2ccccc2cc1-c1ccccc1 [CHEMBL510349] | 1.47 |  |  | pIC50 (MAO-B [2]; from literature IC50 ref Viña et al., 2012b): 4.93; IC50 (MAO-B [2]; prior 3-phenylcoumarins ref Viña et al., 2012b): 11800 nM |
| COc1cc(-c2cc3cc(C)cc(Br)c3oc2=O)cc(OC)c1OC [CHEMBL1221982] | 1.09 |  |  | pIC50 (MAO-B [2]; [3]): 5.31; IC50 (MAO-B [2]; [4]): 4890 nM |
| O=c1oc2c(O)cc(Br)cc2cc1-c1ccc(O)cc1 [CHEMBL1777849] | 2.46 |  |  | pIC50 (MAO-B [2]; [7]): 4.77; IC50 (MAO-B [2]; [8]): 16900 nM |
| O=c1oc2c(O)cc(Br)cc2cc1-c1ccccc1 [CHEMBL1777847] | 1.45 |  |  | pIC50 (MAO-B [2]; [7]): 4.51; IC50 (MAO-B [2]; [8]): 30900 nM |

Further lines, with some results ahead:

| LiPE (MAO-B [1]) | SMILES | pIC50 (MAO-B [2]; [5]) | IC50 (MAO-B [2]; [6]) [nM] | further results |
| --- | --- | --- | --- | --- |
| 1.46 | Cc1ccc2oc(=O)c(-c3ccccc3Br)cc2c1 [CHEMBL1221929] |  |  | pIC50 (MAO-B [2]; [3]): 5.37; IC50 (MAO-B [2]; [4]): 4300 nM |
| 4.41 | COc1ccc(-c2cc3cc(C)ccc3oc2=O)cc1 [CHEMBL572233] |  |  | pIC50 (MAO-B [2]; [9]): 7.88; IC50 (MAO-B [2]; [10]): 13.1 nM |
| 5.35 | COc1ccc2oc(=O)c(-c3ccc(C)cc3)cc2c1 [CHEMBL1835224] | 8.82 | 1.52 |  |
| 4.41 | COc1cc(-c2cc3cc(C)ccc3oc2=O)ccc1Br [CHEMBL1835232] | 8.49 | 3.25 |  |
| 0.95 | Cc1cc(Br)c2oc(=O)c(-c3ccccc3)cc2c1 [CHEMBL1221930] |  |  | pIC50 (MAO-B [2]; [3]): 4.96; IC50 (MAO-B [2]; [4]): 11000 nM |
| 4.42 | Cc1ccc(-c2cc3cc(O)ccc3oc2=O)cc1 [CHEMBL1835225] | 7.17 | 67.1 |  |
| 4.52 | COc1cc(OC)cc(-c2cc3cc(C)ccc3oc2=O)c1 [CHEMBL1783715] |  |  | pIC50 (MAO-B [2]; [9]): 8.05; IC50 (MAO-B [2]; [10]): 8.98 nM |
| 5.04 | COc1ccc(-c2cc3cc(C)ccc3oc2=O)cc1OC [CHEMBL1835230] | 8.56 | 2.73 |  |
| 4.08 | Cc1ccc2oc(=O)c(-c3ccccc3O)cc2c1 [CHEMBL1835327] | 6.92 | 120 |  |
| 3.08 | Cc1ccc2oc(=O)c(-c3ccccc3)cc2c1 [CHEMBL1783714] |  |  | pIC50 (MAO-B [2]; from literature IC50 ref Matos et al., 2009, 2011a, Viña et al., 2012b): 6.55; IC50 (MAO-B [2]; prior 3-phenylcoumarins ref Matos et al., 2009, 2011a, Viña et al., 2012b): 284 nM |
| 4.30 | COc1ccc2oc(=O)c(-c3cccc(C)c3)cc2c1 [CHEMBL1835223] | 7.77 | 17.1 |  |
| 3.80 | CC(=O)COc1cccc(-c2cc3cc(C)ccc3oc2=O)c1 [CHEMBL1835328] | 6.74 | 180 |  |
| 5.64 | COc1cccc(-c2cc3cc(C)ccc3oc2=O)c1 [CHEMBL570731] | 9.10 | 0.8 |  |
| 2.32 | CC(=O)COc1ccc2oc(=O)c(-c3ccc(C)cc3)cc2c1 [CHEMBL1835226] | 5.26 | 5520 |  |
| 4.09 | Cc1cccc(-c2cc3cc(C)ccc3oc2=O)c1 [CHEMBL1835229] | 7.82 | 15 |  |
| 3.44 | Cc1ccc2oc(=O)c(-c3cccc(O)c3)cc2c1 [CHEMBL1835326] | 6.19 | 650 |  |
| 5.05 | COc1ccc(-c2cc3cc(C)ccc3oc2=O)cc1Br [CHEMBL1835231] | 9.13 | 0.74 |  |
